# According to paper PMC10581251, “Antisense inhibition of RNA polymerase α subunit of Clostridioides difficile” (Microbiology Spectrum, 2023):
# Read-outs that look alike come from different tables or passages of the source.
# Legend:
# [1] = tested on: toxin A and toxin B production by C. difficile 630; test: Toxin production inhibition (ELISA); format: cell-based, Clostridioides difficile; settings: 8 hours, ELISA of supernatant, triplicate
# Protocol: After the incubation period, the bacterial count in each treatment group was determined by serial dilution and plating. Toxin content in the supernatant of each treatment group was determined using an enzyme-linked immunosorbent assay (ELISA, tgcBIOMICS) kit, as per the manufacturer’s protocol.
# C. difficile 1082 = test: MIC/MBC broth microdilution, C. difficile 1082; format: cell-based, Clostridioides difficile; settings: for MIC: broth microdilution, anaerobic 48 hours 37°C, visual, read-out: MIC; for MBC: plated on BHIS agar, read-out: MBC
# Protocol: (§1) The susceptibility of C. difficile isolates to the CPP-PNA conjugates or to the CPP alone was determined in vitro as described before with slight modifications ([43] [–] [45]). Briefly, the CPP-PNA conjugates, the CPP alone, and the antibiotics vancomycin and fidaxomicin were added in triplicate to the first row of ultra-low adhesion 96-well plates (Corning Inc., Corning, NY). A suspension of C. difficile equivalent to 0.5 McFarland solution was added to Mueller-Hilton II broth, which was then added to the ultra-low adhesion plate and then serially diluted. The plates were incubated anaerobically for 48 hours at 37°C. The minimum inhibitory concentration was defined as the lowest concentration of the CPP-PNA conjugate that could inhibit bacterial growth when observed visually.
# (§2) The MIC and MBC experiments were repeated twice.
# C. difficile ATCC 43255 = test: MIC/MBC broth microdilution, C. difficile ATCC 43255; format: cell-based, Clostridioides difficile; settings: for MIC: broth microdilution, anaerobic 48 hours 37°C, visual, read-out: MIC; for MBC: plated on BHIS agar, read-out: MBC
# Protocol: as §1, §2
# [2] = tested on: rpoA gene (RNA polymerase α subunit) of C. difficile ATCC 630; test: RT-PCR rpoA gene expression; format: cell-based, Clostridioides difficile; settings: 12 hours, qPCR
# Protocol: (§3) The antisense effect of the rpoA-TAT conjugate was evaluated using a real-time quantitative reverse-transcriptase polymerase chain reaction (RT-PCR) assay ([11], [12]). Briefly, an overnight culture of C. difficile ATCC 630 was diluted in fresh Mueller-Hilton broth II and added in triplicate to low-adhesion microcentrifuge tubes. […] The tubes were incubated anaerobically at 37°C for 12 hours following which the bacterial pellet in each treatment group was collected by centrifugation at 10,000 × g for 10 minutes. Bacteria were subsequently lysed with recombinant lysostaphin (100 µg/mL) in Tris-EDTA (TE) buffer (1 mol/L Tris, 0.5 mol/L ethylenediaminetetraacetate pH 8, nuclease-free H20), and total RNA was extracted using the TRIzol Max Bacterial Isolation Kit as per the manufacturer’s instructions. Turbo DNAse was used to remove genomic DNA contamination from each sample as per the protocol. cDNA was synthesized using the SuperScript III First-Strand Synthesis Kit as per the manufacturer’s instructions. The relative quantification of cDNA for each treatment group was determined using the iTaq Universal SYBR Green One-Step Kit and CFX96 Real-Time PCR Detection System per the manufacturer’s instructions.
# (§4) The constitutively expressed tpi gene was used as an internal control. Real-time RT-PCR results were analyzed using the 2^-ΔΔCT method.
# [3] = tested on: spoOA gene of C. difficile ATCC 630; test: RT-PCR spoOA gene expression; format: cell-based; settings: 12 hours, qPCR
# Protocol: as §3, §4
# [4] = tested on: toxin B (tcdB) gene of C. difficile ATCC 630; test: RT-PCR toxin B (tcdB) gene expression; format: cell-based, Clostridioides difficile; settings: 12 hours, qPCR
# Protocol: as §3, §4
# [5] = tested on: gut microflora strains (Lactobacillus sp., Bacteroides sp., and Bifidobacterium sp.); test: Growth inhibition of representative gut microflora strains (summary); format: cell-based; settings: broth microdilution, 48 hours
# Protocol: The susceptibility of gut microflora strains to the rpoA-TAT conjugate was determined using the broth microdilution assay, as described above. Briefly, bacterial suspensions of Bifidobacterium sp. and Bacteroides sp., in supplemented BHIS broth, and Lactobacilli strains, in MRS broth, were added to ultra-low adhesion 96-well plates and serially diluted. The MIC was recorded after 48 hours.
# [6] = tested on: toxin A (tcdA) gene of C. difficile ATCC 630; test: RT-PCR toxin A (tcdA) gene expression; format: cell-based, Clostridioides difficile; settings: 12 hours, qPCR
# Protocol: as §3, §4
# [7] = Clostridioides difficile, ATCC43255
compound,measurement,setting,value
"CCc1c(Cl)c(O)c(Cl)c(O)c1C(=O)O[C@H]1[C@H](O)[C@H](OC)[C@H](OC/C2=C\C=C\C[C@H](O)/C(C)=C/[C@H](CC)[C@@H](O[C@@H]3OC(C)(C)[C@@H](OC(=O)C(C)C)[C@H](O)[C@@H]3O)/C(C)=C/C(C)=C/C[C@@H]([C@@H](C)O)OC2=O)O[C@@H]1C [Fidaxomicin, fidaxomicin]",reduction of C. difficile toxin production,[1]; 0.125× MIC,45.7%
same,reduction of C. difficile toxin production,[1]; 0.25× MIC,50.6%
same,reduction of C. difficile toxin production,[1]; 0.5× MIC,54%
same,MIC,"C. difficile 1082; Clostridioides difficile, 1082",2 µM
same,MBC,"C. difficile 1082; Clostridioides difficile, 1082",2 µM
same,MIC,C. difficile ATCC 43255; [7],0.5 µM
same,MBC,C. difficile ATCC 43255; [7],0.5 µM
"GRKKKRRQRRRYK-O-CATGGACAAAAC-NH2 [rpoA-TAT, PNA oligomer antisense to C. difficile rpoA covalently conjugated to the TAT cell penetrating peptide]",reduction of C. difficile toxin production,[1]; 0.125× MIC,34.9%
same,reduction of C. difficile toxin production,[1]; 0.25× MIC,54.3%
same,reduction of C. difficile toxin production,[1]; 0.5× MIC,55.2%
same,MIC,C. difficile 1082,4 µM
same,MBC,C. difficile 1082,4 µM
same,reduction of rpoA gene expression,"[2]; 0.125× MIC (1 µM), tpi internal control",34%
same,reduction of rpoA gene expression,[2]; 0.25× MIC (2 µM),46.3%
same,reduction of rpoA gene expression,[2]; 0.5× MIC (4 µM),78.2%
same,reduction of spoOA gene expression,[3]; 0.125× MIC (1 µM),45.2%
same,reduction of spoOA gene expression,[3]; 0.25× MIC (2 µM),58.4%
same,reduction of spoOA gene expression,[3]; 0.5× MIC (4 µM),68.5%
same,MIC,C. difficile ATCC 43255,8 µM
same,MBC,C. difficile ATCC 43255,8 µM
same,reduction of toxin B (tcdB) gene expression,[4]; 0.125× MIC (1 µM),26%
same,reduction of toxin B (tcdB) gene expression,[4]; 0.25× MIC (2 µM),51.2%
same,reduction of toxin B (tcdB) gene expression,[4]; 0.5× MIC (4 µM),74.5%
same,concentration without growth inhibition of gut microflora strains,[5],> 32 µM
same,reduction of toxin A (tcdA) gene expression,[6]; 0.125× MIC (1 µM),41.3%
same,reduction of toxin A (tcdA) gene expression,[6]; 0.25× MIC (2 µM),50.7%
same,reduction of toxin A (tcdA) gene expression,[6]; 0.5× MIC (4 µM),71.2%
